Assays:
medullary thymocytes = conditions: cited from earlier work
S1P receptors = conditions: transfected cells expressing individual S1P receptors; cited from earlier work
T cell = conditions: cited from earlier work
[1] = test system: neonatal DRG-SC co-cultures; experiment: Myelination in neonatal DRG-SC co-cultures; assay type: cell-based
Description: TNF-α and IFN-γ (labeled as cytokines) acted synergistically to decrease cell viability via NOS induction and ceramide accumulation in immortalized SCs (FIG. 4) (Nagano et al., 2001). Neither cytokine alone induced cell death. These cytokines also exerted a synergistic inhibitory action on myelination in neonatal DRG-SC co-cultures, which is evident after 3 days of treatment.

B7-2 deficient NOD mice [2] = experiment: Electrophysiological studies of sciatic nerve function in vivo; parameters: species or system mouse; conditions: FTY720 1 mg/kg oral gavage once daily for 1 month
Protocol: (§1) Female B7-2 deficient NOD mice were used since they are more prone to develop SAP than their male counterparts (Salomon et al., supra). The mice were 7 months of age at the start of the study. Animals were given FTY720 (aqueous solution) at doses of 0.3 mg/kg or 1 mg/kg or vehicle alone by oral gavage once daily for 1 month. The concentrations were chosen based on dose-response studies with regard to the depletion of peripheral lymphocytes, and data from EAE studies in rats (Brinkmann et al., 2002; Fujino et al., 2003).
Electrophysiological studies were performed to assess the effect of FTY720 on sciatic nerve function in vivo in a subset of the study animals. […] FIG. 6 likewise illustrates that FTY720 treatment improves DL and CV (FIG. 6B, showing a summary of the results from experiments performed on 12 nerves from 6 water-treated mice and 14 nerves from 7 FTY720-treated mice) but not the amplitude of sciatic CMAPs (FIG. 6A).

B7-2 deficient NOD mice [3] = experiment: Clinical scores and grip strength in spontaneous autoimmune polyneuropathy (SAP); assay type: in vivo, mouse
Protocol: as §1
To determine the effect of FTY720 on clinical scores and grip strength of B7-2 deficient NOD mice, both qualitative and quantitative assessment was performed by blinded lab personnel. For qualitative assessment, a nominal scale (with 0 as normal and 5 as death) described by other investigators (Zhu et al., 2001a) was used. For quantitative assessment, hindlimb and forelimb strength was measured with a grip strength meter (Columbus Instruments). […] Similar results were observed when forelimb and hindlimb strength was assessed quantitatively.

[4] = test system: peripheral blood lymphocyte; experiment: Induction of peripheral blood lymphopenia; assay type: in vivo, mouse
Protocol: as §1
The effectiveness of FTY720 was also monitored by the induction of peripheral blood lymphopenia. The peripheral blood lymphocyte count was decreased to 50-60% of vehicle-treated ones by FTY720 (0.3 mg/kg) (n=4) and to 25-30% by FTY720 (1 mg/kg) (n=3).

B7-2 deficient NOD mice [5] = experiment: Histological evaluation of inflammatory cell infiltration in sciatic nerve sections; assay type: in vivo, mouse; conditions: 1.0 mg/kg; quantitative (p<0.02) and semi-quantitative (p<0.003) method; n=7
Protocol: as §1
To further evaluate the effect of FTY720 on B7-2 deficient NOD mice, histological evaluation was performed to assess inflammatory cell infiltration. […] For quantitative method, tissue areas were measured by image analysis and the number of inflammatory cells counted at ×20 magnification. The results were averaged and expressed as cells per mm^2 tissue section. For semi-quantitative method, inflammation was graded as: 1, a few scattered mononuclear inflammatory cells often subperineurial; 2, perivenular cuffing with mononuclear inflammatory cells (one or two foci); 3, extensive multifocal perivenular cuffing and widespread endoneurial inflammation.

B7-2 deficient NOD mice [6] = experiment: Demyelination and loss of myelinated fibers in epon sections; assay type: in vivo, mouse; conditions: 1.0 mg/kg, p<0.015, n=7
Protocol: as §1
Epon sections were prepared from vehicle-treated mice (n=6) and mice treated with 1.0 mg/kg FTY720 (n=7). […] These differences were statistically different with a p value of less than 0.015. The percentage of loss of myelinated fibers in epon sections was assessed by a blinded observer using a grid. Demyelination was graded as follows: 1, isolated demyelinated axons perivascular or scattered; 2, many foci of perivascular demyelination; 3, extensive demyelination, perivascular and confluent.

lymphocyte = conditions: cited from earlier work

For `CCCCCCCOc1ccc(CC[C@@](C)(N)CO)cc1` [AAL(R)], the “time to downregulation of CD69” value (medullary thymocytes) is listed as at most 2 h.

For `CCCCCCCCc1ccc(CC[C@](N)(CO)COP(=O)(O)O)cc1` [FTY720-P], the “agonist activity at S1P receptors” value (S1P receptors) is listed as “potent agonist of S1P receptors with the exception of S1P2”.

In the case of `CCCCCCCCCCCCC/C=C/[C@@H](O)[C@@H](N)COP(=O)(O)O` [S1P, sphingosine 1-phosphate], the “concentration that elicits T cell chemotaxis” value (T cell; high concentrations are inhibitory) is listed as at most 0.1 µM.

With IFN-γ: pro-inflammatory Th1 cytokine the effect on myelination ([1]; IFN-γ at 50-300 U/ml alone) was “No effect on myelination”.

With `CCCCCCCCc1ccc(CCC(N)(CO)CO)cc1` [FTY720, 2-amino-2-[2-(4-octylphenyl)ethyl]-1,3-propanediol] the “Distal Latency” value (B7-2 deficient NOD mice [2]; sciatic nerve, vehicle 2.59 ± 0.3, p < 0.02) was 1.58 ± 0.3 ms, the “Conduction Velocity” value (B7-2 deficient NOD mice [2]; sciatic nerve, vehicle 14.7 ± 3.0, p < 0.01) was 22.8 ± 3.2 m/s and the “Amplitude of sciatic CMAPs” value (B7-2 deficient NOD mice [2]; vehicle 3.75 ± 1.8) was 3.8 ± 0.7 mV. For the same compound, the “difference in clinical score between 7 months and 8 months” value (B7-2 deficient NOD mice [3]; 0.3 mg/kg oral once daily for 1 month, p less than 0.03, n=5) was “statistically significant”, the “forelimb and hindlimb grip strength vs vehicle or 0.3 mg/kg” value (B7-2 deficient NOD mice [3]; 1.0 mg/kg oral once daily for 1 month, grip strength meter) was “increased grip strength” and the “clinical scores, month 7 vs month 8” value (B7-2 deficient NOD mice [3]; 1.0 mg/kg oral once daily for 1 month, scale 0 normal to 5 death, n=10) was “did not increase between month 7 and month 8”. The “peripheral blood lymphocyte count, % of vehicle-treated” value ([4]; 0.3 mg/kg oral once daily, n=4) was 50-60%, the “peripheral blood lymphocyte count, % of vehicle-treated” value ([4]; 1 mg/kg oral once daily, n=3) was 25-30% and the “inflammatory cell infiltration vs water-treated mice” value (B7-2 deficient NOD mice [5]) was “decreased inflammatory cell infiltration”. For the same compound, the “percentage of myelinated fibers lost vs vehicle” value (B7-2 deficient NOD mice [6]) was “decrease in the percentage of myelinated fibers lost”, the “concentration that elicits lymphocyte apoptosis” value (lymphocyte) was over 3 µM and the “T cell chemotactic activity” value (T cell) was “lacks T cell chemotactic activity”.

In the case of TNF-α, the effect on myelination ([1]; TNF-α 10 ng/ml alone) is reported as “No effect on myelination” and the effect on myelination ([1]; TNF-α 100 ng/ml alone) is reported as “modest inhibitory action”.

— US9101576B2, “Treatment of inflammatory diseases” (The University of Chicago, priority 2006, dated 2015)
